# pIC50: −log10 of the molar value.
# How the values were obtained:
# [1] = Aggregation property of the compound in ammonium acetate buffer at pH 7.6 assessed as particle size at 30 uM in presence of Triton X-100 by transmission electron microscopy; assay type: physicochemical; conditions: pH 7.6, 30 µM
# [2] = Aggregation property of the compound in water at pH 7 assessed as particle size at 3 uM in presence of Triton X-100 by dynamic light scattering method; assay type: physicochemical; conditions: buffer, pH 7, 3 µM
# [3] = Aggregation property of the compound in ammonium acetate buffer at pH 7.6 assessed as light scattering intensity counts at 30 uM in presence of Triton X-100 by dynamic light scattering method; assay type: physicochemical; conditions: pH 7.6, 30 µM
# [4] = Aggregation property of the compound in water at pH 7 assessed as light scattering intensity counts at 30 uM in absence of Triton X-100 by dynamic light scattering method; assay type: physicochemical; conditions: buffer, pH 7, 30 µM
# [5] = Aggregation property of the compound in water at pH 7 assessed as particle size at 3 uM in absence of Triton X-100 by dynamic light scattering method; assay type: physicochemical; conditions: buffer, pH 7, 3 µM
# [6] = Aggregation property of the compound in water at pH 7 assessed as light scattering intensity counts at 30 uM in presence of Triton X-100 by dynamic light scattering method; assay type: physicochemical; conditions: buffer, pH 7, 30 µM
# [7] = Aggregation property of the compound in ammonium acetate buffer at pH 7.6 assessed as light scattering intensity counts at 3 uM in absence of Triton X-100 by dynamic light scattering method; assay type: physicochemical; conditions: pH 7.6, 3 µM
# [8] = Aggregation property of the compound in ammonium acetate buffer at pH 7.6 assessed as particle size at 3 uM in absence of Triton X-100 by dynamic light scattering method; assay type: physicochemical; conditions: pH 7.6, 3 µM
# [9] = Aggregation property of the compound in water at pH 7 assessed as particle size at 30 uM in absence of Triton X-100 by dynamic light scattering method; assay type: physicochemical; conditions: buffer, pH 7, 30 µM
# [10] = Aggregation property of the compound in ammonium acetate buffer at pH 7.6 assessed as particle size at 30 uM in absence of Triton X-100 by transmission electron microscopy; assay type: physicochemical; conditions: pH 7.6, 30 µM
# [11] = Aggregation property of the compound in ammonium acetate buffer at pH 7.6 assessed as particle size at 30 uM in absence of Triton X-100 by dynamic light scattering method; assay type: physicochemical; conditions: pH 7.6, 30 µM
# [12] = system: Mycobacterium tuberculosis; experiment: Inhibition of Mycobacterium tuberculosis shikimate kinase assessed as reduction in S3P production at 30 uM pre-incubated with 0.2 uM enzyme for 30 mins before ATP and shikimate substrate addition in presence of Triton X-100 by LC-MS assay
# [13] = Aggregation property of the compound in ammonium acetate buffer at pH 7.6 assessed as particle size at 30 uM in presence of Triton X-100 by dynamic light scattering method; assay type: physicochemical; conditions: pH 7.6, 30 µM
# [14] = system: Mycobacterium tuberculosis; experiment: Inhibition of Mycobacterium tuberculosis shikimate kinase assessed as reduction in S3P production at 30 uM pre-incubated with 0.02 uM enzyme for 30 mins before ATP and shikimate substrate addition in absence of Triton X-100 by LC-MS assay
# [15] = system: Mycobacterium tuberculosis; experiment: Inhibition of Mycobacterium tuberculosis shikimate kinase assessed as reduction in S3P production at 30 uM pre-incubated with 0.2 uM enzyme for 30 mins before ATP and shikimate substrate addition in absence of Triton X-100 by LC-MS assay
# [16] = Aggregation property of the compound in water at pH 7 assessed as light scattering intensity counts at 3 uM in presence of Triton X-100 by dynamic light scattering method; assay type: physicochemical; conditions: buffer, pH 7, 3 µM
# [17] = Aggregation property of the compound in ammonium acetate buffer at pH 7.6 assessed as light scattering intensity counts at 30 uM in absence of Triton X-100 by dynamic light scattering method; assay type: physicochemical; conditions: pH 7.6, 30 µM
# [18] = Aggregation property of the compound in ammonium acetate buffer at pH 7.6 assessed as light scattering intensity counts at 10 uM in presence of Triton X-100 by dynamic light scattering method; assay type: physicochemical; conditions: pH 7.6, 10 µM
# [19] = Aggregation property of the compound in ammonium acetate buffer at pH 7.6 assessed as particle size at 3 uM in presence of Triton X-100 by dynamic light scattering method; assay type: physicochemical; conditions: pH 7.6, 3 µM
# [20] = Aggregation property of the compound in ammonium acetate buffer at pH 7.6 assessed as particle size at 10 uM in presence of Triton X-100 by dynamic light scattering method; assay type: physicochemical; conditions: pH 7.6, 10 µM
# [21] = Aggregation property of the compound in water at pH 7 assessed as light scattering intensity counts at 10 uM in absence of Triton X-100 by dynamic light scattering method; assay type: physicochemical; conditions: buffer, pH 7, 10 µM
# [22] = Aggregation property of the compound in ammonium acetate buffer at pH 7.6 assessed as light scattering intensity counts at 3 uM in presence of Triton X-100 by dynamic light scattering method; assay type: physicochemical; conditions: pH 7.6, 3 µM
# [23] = Inhibition of Mycobacterium tuberculosis shikimate kinase assessed as reduction in S3P production […] pre-incubated with 0.015 uM enzyme for 30 mins before ATP and shikimate substrate addition by LC-MS assay
# [24] = system: Mycobacterium tuberculosis; experiment: Inhibition of Mycobacterium tuberculosis shikimate kinase assessed as reduction in S3P production at 30 uM pre-incubated with 0.02 uM enzyme for 30 mins before ATP and shikimate substrate addition in presence of Triton X-100 by LC-MS assay
# [25] = Aggregation property of the compound in water at pH 7 assessed as light scattering intensity counts at 10 uM in presence of Triton X-100 by dynamic light scattering method; assay type: physicochemical; conditions: buffer, pH 7, 10 µM
# [26] = Aggregation property of the compound in water at pH 7 assessed as particle size at 30 uM in presence of Triton X-100 by dynamic light scattering method; assay type: physicochemical; conditions: buffer, pH 7, 30 µM
# [27] = Aggregation property of the compound in water at pH 7 assessed as particle size at 10 uM in presence of Triton X-100 by dynamic light scattering method; assay type: physicochemical; conditions: buffer, pH 7, 10 µM
# [28] = Aggregation property of the compound in water at pH 7 assessed as light scattering intensity counts at 3 uM in absence of Triton X-100 by dynamic light scattering method; assay type: physicochemical; conditions: buffer, pH 7, 3 µM
# [29] = Aggregation property of the compound in ammonium acetate buffer at pH 7.6 assessed as particle size at 10 uM in absence of Triton X-100 by dynamic light scattering method; assay type: physicochemical; conditions: pH 7.6, 10 µM
# [30] = Aggregation property of the compound in ammonium acetate buffer at pH 7.6 assessed as light scattering intensity counts at 10 uM in absence of Triton X-100 by dynamic light scattering method; assay type: physicochemical; conditions: pH 7.6, 10 µM
# [31] = Aggregation property of the compound in water at pH 7 assessed as particle size at 10 uM in absence of Triton X-100 by dynamic light scattering method; assay type: physicochemical; conditions: buffer, pH 7, 10 µM
# [32] = Aggregation property of the compound in potassium phosphate buffer at pH 7.2 assessed as micelle formation by measuring peal broadening at 12.5 to 200 uM by one-dimensional 1H-NMR spectroscopy; assay type: physicochemical; conditions: pH 7.2, 200 µM
# [33] = Aggregation property of the compound in ammonium acetate buffer at pH 7.6 assessed as particle size at 100 uM in absence of Triton X-100 by dynamic light scattering method; assay type: physicochemical; conditions: pH 7.6, 100 µM
# [34] = system: Mycobacterium tuberculosis; experiment: Antimycobacterial activity against Mycobacterium tuberculosis H37Rv; assay type: functional
# [35] = system: Mycobacterium tuberculosis; experiment: Inhibition of Mycobacterium tuberculosis shikimate kinase assessed as reduction in S3P production at <50 uM pre-incubated for 30 mins before ATP and shikimate substrate addition by LC-MS assay
# [36] = Aggregation property of the compound in water at pH 7 assessed as particle size at 100 uM in presence of Triton X-100 by dynamic light scattering method; assay type: physicochemical; conditions: buffer, pH 7, 100 µM
# [37] = Aggregation property of the compound in potassium phosphate buffer at pH 7.2 assessed as micelle formation by measuring peal broadening at 6.25 to 200 uM by one-dimensional 1H-NMR spectroscopy; assay type: physicochemical; conditions: pH 7.2, 200 µM
# [38] = Aggregation property of the compound in water at pH 7 assessed as light scattering intensity counts at 100 uM in presence of Triton X-100 by dynamic light scattering method; assay type: physicochemical; conditions: buffer, pH 7, 100 µM
# [39] = Aggregation property of the compound in water at pH 7 assessed as particle size at 100 uM in absence of Triton X-100 by dynamic light scattering method; assay type: physicochemical; conditions: buffer, pH 7, 100 µM
# [40] = Aggregation property of the compound in ammonium acetate buffer at pH 7.6 assessed as particle size at 100 uM in presence of Triton X-100 by dynamic light scattering method; assay type: physicochemical; conditions: pH 7.6, 100 µM
# [41] = Aggregation property of the compound in ammonium acetate buffer at pH 7.6 assessed as light scattering intensity counts at 100 uM in presence of Triton X-100 by dynamic light scattering method; assay type: physicochemical; conditions: pH 7.6, 100 µM
# [42] = Inhibition of Mycobacterium tuberculosis shikimate kinase assessed as reduction in S3P production pre-incubated for 30 mins before ATP and shikimate substrate addition by LC-MS assay
# [43] = Aggregation property of the compound in ammonium acetate buffer at pH 7.6 assessed as light scattering intensity counts at 100 uM in absence of Triton X-100 by dynamic light scattering method; assay type: physicochemical; conditions: pH 7.6, 100 µM
# [44] = Aggregation property of the compound in water at pH 7 assessed as light scattering intensity counts at 100 uM in absence of Triton X-100 by dynamic light scattering method; assay type: physicochemical; conditions: buffer, pH 7, 100 µM
structure (smiles),measurement,setting,value
COc1cc(C=O)ccc1OCc1ccccc1COc1ccc(/C=C2/SC(=S)NC2=O)cc1OC,Activity,[1],5 nm
same,Activity,[2],0 nm
same,Activity,[3],5 kCounts
same,Activity,[4],30 kCounts
same,Activity,[5],0 nm
same,Activity,[6],5 kCounts
same,Activity,[7],0 Counts
same,Activity,[8],0 nm
same,Activity,[9],80 nm
same,Activity,[10],100 nm
same,Activity,[11],80 nm
same,inhibition,[12],83%
same,Activity,[13],0 nm
same,inhibition,[14],96%
same,inhibition,[15],55%
same,Activity,[16],0 kCounts
same,Activity,[17],30 kCounts
same,Activity,[18],4 kCounts
same,Activity,[19],0 nm
same,Activity,[20],0 nm
same,Activity,[21],2 kCounts
same,Activity,[22],0 kCounts
same,pIC50,[23],5.00
same,inhibition,[24],98%
same,Activity,[25],2 kCounts
same,Activity,[26],0 nm
same,Activity,[27],0 nm
same,Activity,[28],0 kCounts
same,Activity,[29],0 nm
same,Activity,[30],4 kCounts
same,Activity,[31],0 nm
Nc1nc2ccc(OC(F)(F)F)cc2s1 [RILUZOLE],Activity,[32],Not Active
CCSc1ccc(C(=O)Nc2nnc(-c3ccco3)o2)cc1,Activity,[33],1151 nm
same,IC90,[34],0.71 µg/mL
same,inhibition,[35],> 90%
same,Activity,[36],182 nm
same,Activity,[37],Active
same,Activity,[38],85 kCounts
same,Activity,[39],1123 nm
same,Activity,[40],185 nm
same,Activity,[41],100 kCounts
same,pIC50,[42],4.68
same,Activity,[43],250 kCounts
same,Activity,[44],245 kCounts
